Like-named read-outs stand apart in the source and are kept apart here.
What was measured:
[1] = test system: ZIKV-induced cell death in human astrocytes; test: ATP cell viability assay for ZIKV-induced cell death, human astrocytes; type: cell-based; details: ZIKV-infected human astrocytes
[2] = test system: ZIKV-induced cell death in hNPCs; test: ATP cell viability assay for ZIKV-induced cell death, hNPCs; type: cell-based, human; details: ZIKV-infected hNPCs
Method: (§1) The reagent was reconstituted and prepared as described by the manufacturer. In order to measure the cell death caused by ZIKV infection, cells were cultured for 16 hours at 37° C. with 5% CO2 in assay plates, followed by the addition of ZIKV solution and incubation at 37° C. with 5% CO2 for 72 hours. ATPlite, the ATP monitoring reagent, was then added to the assay plates and they were incubated for 15 minutes. The resulting luminescence was measured using the ViewLux plate reader (Perkin Elmer). Data were normalized using the wells without cells as a control for 100% cell killing, and cell-containing wells without ZIKV infection were used as full cell viability (0% cell killing).
Human NPCs were seeded onto PDL coated 1536-well assay plates at 250 cells per 3 μl/well and incubated at 37° C. in 5% CO2 for 16 hours. Test compounds dissolved in DMSO were transferred to assay plates at a volume of 23 nl/well by an automated pintool workstation (Wako Automation, San Diego, Calif.). Compounds were incubated with cells for 30 minutes at 37° C. in 5% CO2, immediately followed by the addition of 2 μl/well of ZIKV. Incubation time of compound-treated cells with ZIKV varied based on assay format. Experiments measuring virus-induced caspase 3/7 activity required a 6 hour incubation of ZIKV in the presence compounds at 37° C. in 5% CO2. Following this incubation, 3.5 μl/well of caspase 3/7 reagent mixture was added to assay plates. The plates were incubated for 30 minutes at room temperature, and the resultant luminescence signal was measured using a ViewLux plate reader (Perkin Elmer). Experiments measuring virus-induced cell death required a 72-hour incubation of ZIKV in the presence of compounds at 37° C. in 5% CO2. Following this incubation, 3.5 μl/well of ATP content detection reagent was added to assay plates, incubated for 30 minutes at the room temperature, and the resultant luminescence signal was measured in a ViewLux plate reader.
as §1, with “The ATPlite luminescence assay system assay kit (PerkinElmer) was used to determine cell viability. The reagent” for “The reagent”, “by the manufacture. In order” for “by the manufacturer. In order”, “followed by addition of” for “followed by the addition of”, “plates and incubated for” for “plates and they were incubated for”, “Elmer). Data was normalized using” for “Elmer). Data were normalized using”
Human NPCs were seeded onto PDL coated 1536-well assay plates at 250 cells per 3 μl/well and incubated at 37° C. in 5% CO2 for 16 hours. Test compounds dissolved in DMSO were transferred to assay plates at a volume of 23 nl/well by an automated pintool workstation (Wako Automation, San Diego, Calif.). Compounds were incubated with cells for 30 minutes at 37° C. in 5% CO2, immediately followed by the addition of 2 μl/well of ZIKV. Incubation time of compound-treated cells with ZIKV varied based on assay format. Experiments measuring virus induced caspase 3/7 activity required a 6 hour incubation of ZIKV in the presence compounds at 37° C. in 5% CO2. Following this incubation, 3 μl/well of caspase 3/7 reagent mixture was added to assay plates, incubated for 30 minute at room temperature, and the resultant luminescence signal was measured using a ViewLux plate reader (Perkin Elmer). Experiments measuring the virus induced cell death required a 72 hour incubation of ZIKV in the presence of compounds at 37° C. in 5% CO2. Following this incubation, 3 μl/well of ATP content detection reagent was added to assay plates, incubated for 30 minute at room temperature, and the resultant luminescence signal was measured in a ViewLux plate reader.

[3] = test system: ZIKV-induced caspase 3/7 activity in human astrocytes; test: Caspase 3/7 activity assay, ZIKV-infected human astrocytes; type: cell-based; details: ZIKV-infected human astrocytes; for IC50: read-out: Caspase 3 (IC50, uM) Astrocyte; for Emax: read-out: Caspase 3 (efficacy, %) Astrocyte
Summary of the method: (§2)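 Human NPCs, SNB-19 cells or astrocytes seeded 16 h, compound added 30 min before ZIKV, then 6 h infection at 37 °C. Caspase-Glo 3/7 luminescence after 30 min at room temperature, normalized to uninfected cells (0%) and ZIKV-infected cells (100%).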

[4] = test system: ZIKV-induced caspase 3/7 activity in SNB-19 cells; test: Caspase 3/7 activity assay, ZIKV-infected SNB-19 cells; type: cell-based; details: ZIKV-infected SNB-19 cells; for IC50: read-out: Caspase 3 (IC50, uM) SNB-19; for Emax: read-out: Caspase 3 (efficacy, %) SNB-19
Summary of the method: as §2

SMILES | IC50 ([3]; Astrocyte) | IC50 ([4]; Homo sapiens) | Cell viability (efficacy, %) Astrocyte [1] | Cell viability (efficacy, %) NPCs [2] | Caspase 3 (efficacy, %) Astrocyte [3] | IC50 [3] | Caspase 3 (efficacy, %) SNB-19 [4] | IC50 [4] | Emax ([3]; Astrocyte) | Emax ([4]; Homo sapiens) | IC50 ([1]; Astrocyte, read-out: Cell viability (IC50, uM) Astrocyte)
C/C1=C2/[N-][C@H]([C@H](CC(N)=O)[C@@]2(C)CCC(=O)NC[C@@H](C)OP(=O)([O-])O[C@H]2[C@@H](O)[C@@H](n3cnc4cc(C)c(C)cc43)O[C@@H]2CO)[C@]2(C)N=C(/C(C)=C3N=C(/C=C4N=C1[C@@H](CCC(N)=O)C\4(C)C)[C@@H](CCC(N)=O)[C@]\3(C)CC(N)=O)[C@@H](CCC(N)=O)[C@]2(C)CC(N)=O.[Co+3].[OH-] [Hydroxocobalamin] | – | – | 0.0% | 0.0% | 83.4% | 0.97 µM | 85.7% | 1.46 µM | – | – | –
CC(C(=O)O)c1ccc(C(=O)c2cccs2)cc1 (stereo not shown) [Suprofen] | 19.5 µM | 17.3 µM | 0.0% | 0.0% | – | – | – | – | 64.5% | 65.6% | –
Nc1nc2ccc([N+](=O)[O-])cc2s1 [2-Amino-6-nitrobenzothiazole] | 39.8 µM | 53.1 µM | 0.0% | 0.0% | – | – | – | – | 54.1% | 46.1% | –
CC(=O)Oc1cccc2c1C(=O)c1c(OC(C)=O)cc(C(=O)O)cc1C2=O [Diacerein] | 15.5 µM | 17.3 µM | 35.2% | 0.0% | – | – | – | – | 72.9% | 63.2% | 30.8 µM
O=C(c1ccccc1)c1ccc2n1CCC2C(=O)O (stereo not shown) [Ketorolac tromethamine] | 21.8 µM | 17.3 µM | 0.0% | 0.0% | – | – | – | – | 61.7% | 84.5% | –
O=C(O)c1ccccc1Nc1cccc(C(F)(F)F)c1 [Flufenamic acid] | 8.69 µM | 10.9 µM | 0.0% | 0.0% | – | – | – | – | 71.9% | 61.5% | –
Cc1cccc(/C=C/c2ccccc2)n1 [SIB 1893] | – | – | 0.0% | 0.0% | 96.2% | 12.3 µM | 105% | 15.5 µM | – | – | –

Continued by falling IC50 ([3]; Astrocyte), values first:

IC50 ([3]; Astrocyte) | IC50 ([4]; Homo sapiens) | SMILES | Cell viability (efficacy, %) Astrocyte [1] | Cell viability (efficacy, %) NPCs [2] | Caspase 3 (efficacy, %) Astrocyte [3] | IC50 [3] | Caspase 3 (efficacy, %) SNB-19 [4] | IC50 [4] | Emax ([3]; Astrocyte) | Emax ([4]; Homo sapiens) | IC50 ([1]; Astrocyte, read-out: Cell viability (IC50, uM) Astrocyte)
10.9 µM | 17.3 µM | c1ccc(CCNc2nc(-c3ccccc3)cs2)cc1 [Fanetizole] | 0.0% | 0.0% | – | – | – | – | 72.9% | 78.1% | –
10.3 µM | 14.6 µM | c1ccc2[nH]c(-c3cscn3)nc2c1 [Thiabendazole] | 0.0% | 0.0% | – | – | – | – | 81% | 89.4% | –
9.75 µM | 13 µM | O=C(O)c1cc([N+](=O)[O-])ccc1NCCCc1ccccc1 [5-Nitro-2-(3-phenylpropylamino)benzoic acid] | 0.0% | 0.0% | – | – | – | – | 82.1% | 82.9% | –
6.68 µM | 4.73 µM | O=C(Oc1ccccc1)c1cccc(C(=O)Oc2ccccc2)c1 [Diphenyl isophthalate] | 0.0% | 0.0% | – | – | – | – | 104% | 92.8% | –
6.52 µM | 7.74 µM | CCC(C(=O)O)c1ccc(N2Cc3ccccc3C2=O)cc1 (stereo not shown) [Indobufen] | 0.0% | 0.0% | – | – | – | – | 86.3% | 85.8% | –
3.27 µM | 4.35 µM | Cc1cc(O)c2c(c1)C(=O)c1cc(O)cc(O)c1C2=O [Emodin] | 0.0% | 0.0% | – | – | – | – | 86.4% | 83.3% | –

Reference: patent publication US10940188B2, “Compounds and methods for treatment and prevention of Flavivirus infection” (priority 2016, dated 2021)
